We go through three molecules from ChEMBL document CHEMBL1121926, “Adriamycin analogues. Preparation and antitumor evaluation of 7-O-(beta-D-glucosaminyl)daunomycinone and 7-O-(beta-D-glucosaminyl)adriamycinone and their N-trifluoroacetyl derivatives” (1982).

Holding throughout (type): functional
Assay [1] deals with Mus musculus. Briefly: Percent increase in life span was calculated against L1210 murine leukemia cells in BDF1 male mice at the specified in vivo dose of 3.5(mg/kg)/day.
Assay [2] relates to Mus musculus. The assay is described as follows: Median day of death was calculated against L1210 murine leukemia cells in BDF1 male mice at the specified in vivo dose of 3.5(mg/kg)/day.
Assay [3] deals with Mus musculus. The assay is described as follows: Percent increase in life span was calculated against L1210 murine leukemia cells in BDF1 male mice at the specified in vivo dose of 120(mg/kg)/day.
Assay [4] deals with Mus musculus. Briefly: Median day of death was calculated against L1210 murine leukemia cells in BDF1 male mice at the specified in vivo dose of 120(mg/kg)/day.
In assay [5] the test system is Mus musculus. The assay is described as follows: Percent increase in life span was calculated against L1210 murine leukemia cells in BDF1 male mice at the specified in vivo dose of 90(mg/kg)/day.
Assay [6] deals with Mus musculus. The assay is described as follows: Median day of death was calculated against L1210 murine leukemia cells in BDF1 male mice at the specified in vivo dose of 90(mg/kg)/day.

As to `COc1cccc2c1C(=O)c1c(O)c3c(c(O)c1C2=O)C[C@@](O)(C(=O)CO)C[C@@H]3O[C@H]1C[C@H](N)[C@H](O)[C@H](C)O1` [DOXORUBICIN], in assay [1], the Increase in life-span was 40%. Also, in assay [2], the “Median day of death” value is recorded as 14.

`COc1cccc2c1C(=O)c1c(O)c3c(c(O)c1C2=O)C[C@@](O)(C(=O)CO)C[C@@H]3OC1OC(CO)C(O)C(O)C1N` (stereo partly specified): the Increase in life-span in assay [3] is 40%. Further, in assay [4], the “Median day of death” value is listed as 14.

Consider `COc1cccc2c1C(=O)c1c(O)c3c(c(O)c1C2=O)C[C@@](O)(C(C)=O)C[C@@H]3O[C@@H]1O[C@H](CO)[C@@H](O)[C@H](O)[C@H]1N`, for which the Increase in life-span in assay [5] is recorded as 60%. Also, the “Median day of death” value in assay [6] is reported as 16.
